Experimental data taken from US9414596B2, “Metalloenzyme inhibitor compounds” (Viamet Pharmaceuticals, Inc., priority 2012, dated 2016).
Converted amounts (≈) assume the structure as drawn.

The compounds below were run on Septoria tritici (ATCC 26517) (assay: Minimum Inhibitory Concentration (MIC) (Septoria tritici), CLSI-based microdilution). Conditions: Zymoseptoria tritici, ATCC26517, 168 h, S. tritici ATCC 26517; seven days at 22° C. in the dark; MIC = 50% reduction in growth, visual; read-out: Septoria MIC Rating.
Assay type: cell-based
Procedure: B. Minimum Inhibitory Concentration (MIC) (Septoria tritici)
Compounds of the present disclosure were assessed for their ability to inhibit the growth of a common strain of the fungal plant pathogen Septoria tritici (ATCC 26517) using a procedure based on a Clinical and Laboratory Standards Institute (CLSI) microdilution assay protocol for filamentous fungi.
Stock solutions of the test compounds and standards were prepared in DMSO at 6400 μg/mL. Each stock solution was used to prepare a 2-fold dilution series ranging from 16 to 0.016 μg/mL (total of 11 compound concentrations) in RPMI-1640 (Roswell Park Memorial Institute) medium containing 3-(N-morpholino)propanesulfonic acid (MOPS) buffer and 2% DMSO. A 100 μL aliquot of the dilutions was added to columns 1 (16 μg/mL compound) through 11 (0.016 μg/mL compound) of a 96-well microtiter plate. This format was replicated in a second row of the microtiter plate. Thus, each microtiter plate could include 11 concentrations of four test or control compounds replicated twice. A 100 μL aliquot of RPMI-1640/MOPS/2% DMSO medium was added to column 12 (no compound control) of the microtiter plate.
A fresh culture of S. tritici was used to prepare a solution of approximately 5×10^4 colony-forming units per milliliter (cfu/mL) in RPMI/MOPS medium without DMSO. A 100 μL aliquot of this solution was added to all 96 wells in the microtiter plate. […] The assay plates were incubated at 22° C. for seven days in the dark without shaking.

| Compound | MIC |
| --- | --- |
| N#Cc1cccc(-c2ccc(C(F)(F)C(O)(Cn3cnnn3)c3ccc(F)cc3F)nc2)c1 (stereo not drawn) [Example 3, 3-(6-(2-(2,4-Difluorophenyl)-1,1-difluoro-2-hydroxy-3-(1H-tetrazol-1-yl)propyl)pyridin-3-yl)benzonitrile] | 1.5 to 4 µg/mL (≈ 3.3 to 8.8 µM) |
| CC(C)Oc1ccc(-c2ccc(C(F)(F)C(O)(Cn3cnnn3)c3ccc(F)cc3F)nc2)cc1 (stereo not drawn) [Example 4, 2-(2,4-Difluorophenyl)-1,1-difluoro-1-(5-(4-isopropoxyphenyl)pyridin-2-yl)-3-(1H-tetrazol-1-yl)propan-2-ol] | < 0.5 µg/mL |
| OC(Cn1cnnn1)(c1ccc(F)cc1F)C(F)(F)c1ccc(-c2ccc(OC(F)(F)F)cc2)cn1 (stereo not drawn) [Example 7, 2-(2,4-Difluorophenyl)-1,1-difluoro-3-(1H-tetrazol-1-yl)-1-(5-(4-(trifluoromethoxy)phenyl)-pyridin-2-yl)propan-2-ol] | < 0.5 µg/mL |
| OC(Cn1cnnn1)(c1ccc(F)cc1F)C(F)(F)c1ccc(-c2ccc(Cl)cc2)cn1 (stereo not drawn) [Example 9, 1-(5-(4-Chlorophenyl)pyridin-2-yl)-2-(2,4-difluorophenyl)-1,1-difluoro-3-(1H-tetrazol-1-yl)propan-2-ol] | < 0.5 µg/mL |
| OC(Cn1cnnn1)(c1ccc(F)cc1F)C(F)(F)c1ccc(-c2cc(F)ccc2F)cn1 (stereo not drawn) [Example 10, 2-(2,4-Difluorophenyl)-1-(5-(2,5-difluorophenyl)pyridin-2-yl)-1,1-difluoro-3-(1H-tetrazol-1-yl)propan-2-ol] | < 0.5 µg/mL |
| OC(Cn1cncn1)(c1ccc(F)cc1F)C(F)(F)c1ccc(-c2ccc(F)cc2)cn1 (stereo not drawn) [Example 16, 2-(2,4-Difluorophenyl)-1,1-difluoro-1-(5-(4-fluorophenyl)pyridin-2-yl)-3-(1H-1,2,4-triazol-1-yl)propan-2-ol] | < 0.5 µg/mL |
| Oc1ccc(-c2ccc(C(F)(F)C(O)(Cn3cnnn3)c3ccc(F)cc3F)nc2)cc1 (stereo not drawn) [Example 23, 4-(6-(2-(2,4-Difluorophenyl)-1,1-difluoro-2-hydroxy-3-(1H-tetrazol-1-yl)propyl)pyridin-3-yl)phenol] | 1.5 to 4 µg/mL (≈ 3.37 to 8.98 µM) |

The remaining lines, values ahead:

| MIC | Compound |
| --- | --- |
| < 0.5 µg/mL | N#Cc1ccc(-c2ccc(C(F)(F)C(O)(Cn3cnnn3)c3ccc(F)cc3F)nc2)cc1 (stereo not drawn) [Example 1, 4-(6-(2-(2,4-Difluorophenyl)-1,1-difluoro-2-hydroxy-3-(1H-tetrazol-1-yl)propyl)pyridin-3-yl)benzonitrile] |
| < 0.5 µg/mL | OC(Cn1cnnn1)(c1ccc(F)cc1F)C(F)(F)c1ccc(-c2ccc(F)cc2)cn1 (stereo not drawn) [Example 5, 2-(2,4-Difluorophenyl)-1,1-difluoro-1-(5-(4-fluorophenyl)pyridin-2-yl)-3-(1H-tetrazol-1-yl)propan-2-ol] |
| 1.5 to 4 µg/mL (≈ 2.92 to 7.79 µM) | OC(Cn1cnnn1)(c1ccc(F)cc1F)C(F)(F)c1ccc(-c2cccc(OC(F)(F)F)c2)cn1 (stereo not drawn) [Example 6, 2-(2,4-Difluorophenyl)-1,1-difluoro-3-(1H-tetrazol-1-yl)-1-(5-(3-(trifluoromethoxy)phenyl)-pyridin-2-yl)propan-2-ol] |
| 0.5 to 1.5 µg/mL (≈ 1.08 to 3.23 µM) | OC(Cn1cnnn1)(c1ccc(F)cc1F)C(F)(F)c1ccc(-c2cccc(Cl)c2)cn1 (stereo not drawn) [Example 8, 1-(5-(3-Chlorophenyl)pyridin-2-yl)-2-(2,4-difluorophenyl)-1,1-difluoro-3-(1H-tetrazol-1-yl)propan-2-ol] |
| < 0.5 µg/mL | OC(Cn1cnnn1)(c1ccc(F)cc1F)C(F)(F)c1ccc(-c2ccc(OCC(F)(F)F)cc2)cn1 (stereo not drawn) [Example 11, 2-(2,4-Difluorophenyl)-1,1-difluoro-3-(1H-tetrazol-1-yl)-1-(5-(4-(2,2,2-trifluoroethoxy)phenyl)pyridin-2-yl)propan-2-ol] |
| < 0.5 µg/mL | OC(Cn1cncn1)(c1ccc(F)cc1F)C(F)(F)c1ccc(-c2ccc(OC(F)(F)F)cc2)cn1 (stereo not drawn) [Example 18, 2-(2,4-Difluorophenyl)-1,1-difluoro-3-(1H-1,2,4-triazol-1-yl)-1-(5-(4-(trifluoromethoxy)phenyl)pyridin-2-yl) propan-2-ol] |
| > 4 µg/mL | OC(Cn1ncnn1)(c1ccc(F)cc1F)C(F)(F)c1ccc(-c2cccc(F)c2)cn1 (stereo not drawn) [Example 21] |
| > 4 µg/mL | OC(Cn1ncnn1)(c1ccc(F)cc1F)C(F)(F)c1ccc(-c2ccc(C(F)(F)F)cc2)cn1 (stereo not drawn) [Example 22] |
